{
  "source": "paper PMC7385619",
  "about": "“A triple action CDK4/6-PI3K-BET inhibitor with augmented cancer cell cytotoxicity” (Cell Discovery, 2020)",
  "assay_in_all_cases": "KINOMEscan assay (Eurofins DiscoverX)",
  "format_in_all_cases": "binding",
  "key": {"[1]": {"molecular_target": "T1, kinome (kinase panel) (Homo sapiens, UniProt P49137)", "T1 construct": "purchased Eurofins DiscoverX", "conditions": "MAPKAPK2; 1000 nM; read-out: Percent Control"}, "[2]": {"molecular_target": "T2, kinome (kinase panel) (Homo sapiens, UniProt P41240)", "T2 construct": "purchased Eurofins DiscoverX", "conditions": "CSK; 1000 nM; read-out: Percent Control"}, "[3]": {"molecular_target": "T3, kinome (kinase panel) (Homo sapiens, UniProt P42681)", "T3 construct": "purchased Eurofins DiscoverX", "conditions": "TXK; 1000 nM; read-out: Percent Control"}, "[4]": {"molecular_target": "T4, kinome (kinase panel) (Homo sapiens, UniProt Q13705)", "T4 construct": "purchased Eurofins DiscoverX", "T4 sequence (Q13705 19-512)": "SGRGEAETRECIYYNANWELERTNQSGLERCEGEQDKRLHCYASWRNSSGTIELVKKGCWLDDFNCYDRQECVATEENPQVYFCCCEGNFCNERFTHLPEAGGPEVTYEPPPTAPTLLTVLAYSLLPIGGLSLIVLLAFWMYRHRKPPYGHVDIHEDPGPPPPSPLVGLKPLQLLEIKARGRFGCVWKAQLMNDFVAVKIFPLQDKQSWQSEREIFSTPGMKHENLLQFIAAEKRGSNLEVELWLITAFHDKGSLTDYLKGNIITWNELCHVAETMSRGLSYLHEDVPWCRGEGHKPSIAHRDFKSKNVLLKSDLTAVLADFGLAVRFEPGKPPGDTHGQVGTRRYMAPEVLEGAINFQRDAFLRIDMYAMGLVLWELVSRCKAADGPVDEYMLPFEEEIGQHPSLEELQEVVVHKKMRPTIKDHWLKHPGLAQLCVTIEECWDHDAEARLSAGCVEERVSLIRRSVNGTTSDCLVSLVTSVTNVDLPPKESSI", "conditions": "ACVR2B; 1000 nM; read-out: Percent Control"}, "[5]": {"molecular_target": "T5, kinome (kinase panel) (Homo sapiens, UniProt P17948)", "T5 construct": "purchased Eurofins DiscoverX", "T5 sequence (P17948 27-1338)": "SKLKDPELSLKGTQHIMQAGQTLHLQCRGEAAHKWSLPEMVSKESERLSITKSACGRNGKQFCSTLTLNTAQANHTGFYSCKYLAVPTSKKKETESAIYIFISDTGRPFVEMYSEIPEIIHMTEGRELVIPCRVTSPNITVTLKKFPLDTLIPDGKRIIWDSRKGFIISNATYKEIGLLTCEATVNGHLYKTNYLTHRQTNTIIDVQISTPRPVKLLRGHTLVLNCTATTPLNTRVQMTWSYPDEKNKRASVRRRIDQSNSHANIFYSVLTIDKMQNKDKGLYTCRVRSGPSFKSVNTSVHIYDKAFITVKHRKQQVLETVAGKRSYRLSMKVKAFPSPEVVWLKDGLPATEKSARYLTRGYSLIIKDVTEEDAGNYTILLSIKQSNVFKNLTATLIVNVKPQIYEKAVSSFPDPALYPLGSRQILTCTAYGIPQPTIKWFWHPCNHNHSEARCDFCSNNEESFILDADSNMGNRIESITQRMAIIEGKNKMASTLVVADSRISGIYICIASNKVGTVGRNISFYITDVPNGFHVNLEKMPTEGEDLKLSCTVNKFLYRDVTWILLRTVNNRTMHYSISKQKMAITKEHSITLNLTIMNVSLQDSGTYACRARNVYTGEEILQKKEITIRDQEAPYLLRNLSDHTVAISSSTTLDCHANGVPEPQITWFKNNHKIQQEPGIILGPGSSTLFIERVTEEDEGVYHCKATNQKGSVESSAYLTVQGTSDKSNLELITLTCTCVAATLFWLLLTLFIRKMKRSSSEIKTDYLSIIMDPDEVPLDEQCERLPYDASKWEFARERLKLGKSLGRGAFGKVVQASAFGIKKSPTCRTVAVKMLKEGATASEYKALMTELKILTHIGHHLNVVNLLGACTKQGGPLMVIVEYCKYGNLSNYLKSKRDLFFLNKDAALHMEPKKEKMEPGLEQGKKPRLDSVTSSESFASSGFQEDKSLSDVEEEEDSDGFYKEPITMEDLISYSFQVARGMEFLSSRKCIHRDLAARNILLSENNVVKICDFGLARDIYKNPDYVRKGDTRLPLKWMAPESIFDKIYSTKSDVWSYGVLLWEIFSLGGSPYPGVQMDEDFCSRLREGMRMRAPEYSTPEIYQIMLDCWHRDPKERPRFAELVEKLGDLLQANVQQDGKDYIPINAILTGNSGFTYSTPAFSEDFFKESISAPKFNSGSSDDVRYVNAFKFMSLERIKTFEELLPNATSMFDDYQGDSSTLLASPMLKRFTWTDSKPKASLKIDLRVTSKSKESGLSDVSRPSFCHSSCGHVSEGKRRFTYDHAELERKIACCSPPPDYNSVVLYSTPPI", "conditions": "FLT1; 1000 nM; read-out: Percent Control"}, "[6]": {"molecular_target": "T6, kinome (kinase panel) (Homo sapiens, UniProt O15111)", "T6 construct": "purchased Eurofins DiscoverX", "T6 sequence (O15111 whole entry)": "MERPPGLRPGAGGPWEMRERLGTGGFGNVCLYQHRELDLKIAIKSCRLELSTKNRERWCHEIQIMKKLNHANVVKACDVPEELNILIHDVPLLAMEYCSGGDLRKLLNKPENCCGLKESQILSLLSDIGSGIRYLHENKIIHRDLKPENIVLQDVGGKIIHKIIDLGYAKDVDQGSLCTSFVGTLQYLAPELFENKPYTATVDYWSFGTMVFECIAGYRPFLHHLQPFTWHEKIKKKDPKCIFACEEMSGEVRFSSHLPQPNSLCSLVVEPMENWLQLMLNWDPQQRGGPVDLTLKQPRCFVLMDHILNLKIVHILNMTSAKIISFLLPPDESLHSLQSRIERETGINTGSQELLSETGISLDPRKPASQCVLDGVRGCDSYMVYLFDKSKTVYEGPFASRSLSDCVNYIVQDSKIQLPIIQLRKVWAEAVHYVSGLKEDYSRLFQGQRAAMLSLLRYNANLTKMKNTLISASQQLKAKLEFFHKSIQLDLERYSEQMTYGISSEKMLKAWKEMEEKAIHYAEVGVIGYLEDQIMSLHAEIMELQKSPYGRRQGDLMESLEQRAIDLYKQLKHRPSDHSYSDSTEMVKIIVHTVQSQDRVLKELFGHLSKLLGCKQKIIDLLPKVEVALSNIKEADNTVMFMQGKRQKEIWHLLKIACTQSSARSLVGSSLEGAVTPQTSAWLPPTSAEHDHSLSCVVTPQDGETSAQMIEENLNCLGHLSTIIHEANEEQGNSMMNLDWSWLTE", "conditions": "IKK-alpha (Entrez CHUK); 1000 nM; read-out: Percent Control"}, "[7]": {"molecular_target": "T7, kinome (kinase panel) (Homo sapiens, UniProt Q6ZN16)", "T7 construct": "purchased Eurofins DiscoverX", "conditions": "MAP3K15; 1000 nM; read-out: Percent Control"}, "[8]": {"molecular_target": "T8, kinome (kinase panel) (Homo sapiens, UniProt O95819)", "T8 construct": "purchased Eurofins DiscoverX", "conditions": "MAP4K4; 1000 nM; read-out: Percent Control"}, "[9]": {"molecular_target": "T9, kinome (kinase panel) (Homo sapiens, UniProt P53779)", "T9 construct": "purchased Eurofins DiscoverX", "conditions": "JNK3 (Entrez MAPK10); 1000 nM; read-out: Percent Control"}, "[10]": {"molecular_target": "T10, kinome (kinase panel) (Homo sapiens, UniProt P49759)", "T10 construct": "purchased Eurofins DiscoverX", "conditions": "CLK1; 1000 nM; read-out: Percent Control"}, "[11]": {"molecular_target": "T11, kinome (kinase panel) (Homo sapiens, UniProt P19784)", "T11 construct": "purchased Eurofins DiscoverX", "T11 sequence (P19784 whole entry)": "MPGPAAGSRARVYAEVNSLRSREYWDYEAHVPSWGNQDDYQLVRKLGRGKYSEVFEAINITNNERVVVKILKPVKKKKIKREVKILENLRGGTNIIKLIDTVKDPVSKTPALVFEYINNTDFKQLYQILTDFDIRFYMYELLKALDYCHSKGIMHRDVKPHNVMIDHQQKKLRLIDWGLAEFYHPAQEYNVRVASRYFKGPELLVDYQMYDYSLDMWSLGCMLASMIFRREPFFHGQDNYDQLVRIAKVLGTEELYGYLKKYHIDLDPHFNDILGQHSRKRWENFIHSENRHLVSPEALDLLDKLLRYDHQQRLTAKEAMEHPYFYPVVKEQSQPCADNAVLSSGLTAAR", "conditions": "CSNK2A2; 1000 nM; read-out: Percent Control"}, "[12]": {"molecular_target": "T12, kinome (kinase panel) (Homo sapiens, UniProt Q9BQI3)", "T12 construct": "purchased Eurofins DiscoverX", "conditions": "EIF2AK1; 1000 nM; read-out: Percent Control"}, "[13]": {"molecular_target": "T13, kinome (kinase panel) (Homo sapiens, UniProt Q13470)", "T13 construct": "purchased Eurofins DiscoverX", "conditions": "TNK1; 1000 nM; read-out: Percent Control"}, "[14]": {"molecular_target": "T14, kinome (kinase panel) (Homo sapiens, UniProt Q6P3R8)", "T14 construct": "purchased Eurofins DiscoverX", "conditions": "NEK5; 1000 nM; read-out: Percent Control"}, "[15]": {"molecular_target": "T15, kinome (kinase panel) (Homo sapiens, UniProt Q04759)", "T15 construct": "purchased Eurofins DiscoverX", "conditions": "PRKCQ; 1000 nM; read-out: Percent Control"}, "[16]": {"molecular_target": "T16, kinome (kinase panel) (Homo sapiens, UniProt O95382)", "T16 construct": "purchased Eurofins DiscoverX", "conditions": "ASK2 (Entrez MAP3K6); 1000 nM; read-out: Percent Control"}, "[17]": {"molecular_target": "T17, kinome (kinase panel) (Mycobacterium tuberculosis, UniProt P9WI81)", "T17 construct": "purchased Eurofins DiscoverX", "conditions": "PKNB(M.tuberculosis) (Entrez pknB); 1000 nM; read-out: Percent Control"}, "[18]": {"molecular_target": "T18, kinome (kinase panel) (Homo sapiens, UniProt P23443)", "T18 construct": "purchased Eurofins DiscoverX", "conditions": "S6K1 (RPS6KB1); 1000 nM; read-out: Percent Control"}, "[19]": {"molecular_target": "T19, kinome (kinase panel) (Homo sapiens, UniProt P42685)", "T19 construct": "purchased Eurofins DiscoverX", "conditions": "FRK; 1000 nM; read-out: Percent Control"}, "[20]": {"molecular_target": "T20, kinome (kinase panel) (Homo sapiens, UniProt O75747)", "T20 construct": "purchased Eurofins DiscoverX", "conditions": "PIK3C2G; 1000 nM; read-out: Percent Control"}, "[21]": {"molecular_target": "T21, kinome (kinase panel) (Homo sapiens, UniProt Q8IWQ3)", "T21 construct": "purchased Eurofins DiscoverX", "conditions": "BRSK2; 1000 nM; read-out: Percent Control"}, "[22]": {"molecular_target": "T22, kinome (kinase panel) (Homo sapiens, UniProt O75914)", "T22 construct": "purchased Eurofins DiscoverX", "conditions": "PAK3; 1000 nM; read-out: Percent Control"}, "[23]": {"molecular_target": "T23, kinome (kinase panel) (Homo sapiens, UniProt Q9NRM7)", "T23 construct": "purchased Eurofins DiscoverX", "conditions": "LATS2; 1000 nM; read-out: Percent Control"}, "[24]": {"molecular_target": "T24, kinome (kinase panel) (Homo sapiens, UniProt P27037)", "T24 construct": "purchased Eurofins DiscoverX", "conditions": "ACVR2A; 1000 nM; read-out: Percent Control"}, "[25]": {"molecular_target": "T25, kinome (kinase panel) (Homo sapiens, UniProt P10721)", "T25 construct": "purchased Eurofins DiscoverX", "T25 sequence (P10721 26-976)": "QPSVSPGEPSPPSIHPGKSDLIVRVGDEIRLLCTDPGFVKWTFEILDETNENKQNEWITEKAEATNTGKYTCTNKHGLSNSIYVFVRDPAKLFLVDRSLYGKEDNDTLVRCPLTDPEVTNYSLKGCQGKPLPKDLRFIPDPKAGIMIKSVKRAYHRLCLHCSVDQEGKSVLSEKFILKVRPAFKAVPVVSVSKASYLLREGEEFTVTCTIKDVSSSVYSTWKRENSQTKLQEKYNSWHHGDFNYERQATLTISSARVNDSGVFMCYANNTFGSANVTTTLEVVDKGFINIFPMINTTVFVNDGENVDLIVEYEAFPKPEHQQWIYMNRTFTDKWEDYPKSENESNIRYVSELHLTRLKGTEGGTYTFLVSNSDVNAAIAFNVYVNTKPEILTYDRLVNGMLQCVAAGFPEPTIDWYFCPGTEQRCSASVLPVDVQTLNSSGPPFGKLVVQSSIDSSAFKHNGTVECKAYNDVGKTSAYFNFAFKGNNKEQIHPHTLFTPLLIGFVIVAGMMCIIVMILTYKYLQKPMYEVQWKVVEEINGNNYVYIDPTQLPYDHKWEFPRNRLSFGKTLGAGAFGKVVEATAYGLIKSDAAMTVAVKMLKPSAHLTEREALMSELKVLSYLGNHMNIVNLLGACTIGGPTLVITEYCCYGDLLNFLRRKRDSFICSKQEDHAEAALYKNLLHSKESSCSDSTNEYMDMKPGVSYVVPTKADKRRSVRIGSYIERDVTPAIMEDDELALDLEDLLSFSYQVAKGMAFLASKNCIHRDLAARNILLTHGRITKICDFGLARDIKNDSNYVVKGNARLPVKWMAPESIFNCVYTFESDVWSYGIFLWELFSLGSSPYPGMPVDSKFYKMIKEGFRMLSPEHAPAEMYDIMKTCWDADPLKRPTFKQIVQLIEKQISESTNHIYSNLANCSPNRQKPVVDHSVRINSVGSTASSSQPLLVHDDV", "conditions": "1000 nM, read-out: Percent Control"}, "[26]": {"molecular_target": "T26, kinome (kinase panel) (Homo sapiens, UniProt O75676)", "T26 construct": "purchased Eurofins DiscoverX", "T26 sequence (O75676 whole entry)": "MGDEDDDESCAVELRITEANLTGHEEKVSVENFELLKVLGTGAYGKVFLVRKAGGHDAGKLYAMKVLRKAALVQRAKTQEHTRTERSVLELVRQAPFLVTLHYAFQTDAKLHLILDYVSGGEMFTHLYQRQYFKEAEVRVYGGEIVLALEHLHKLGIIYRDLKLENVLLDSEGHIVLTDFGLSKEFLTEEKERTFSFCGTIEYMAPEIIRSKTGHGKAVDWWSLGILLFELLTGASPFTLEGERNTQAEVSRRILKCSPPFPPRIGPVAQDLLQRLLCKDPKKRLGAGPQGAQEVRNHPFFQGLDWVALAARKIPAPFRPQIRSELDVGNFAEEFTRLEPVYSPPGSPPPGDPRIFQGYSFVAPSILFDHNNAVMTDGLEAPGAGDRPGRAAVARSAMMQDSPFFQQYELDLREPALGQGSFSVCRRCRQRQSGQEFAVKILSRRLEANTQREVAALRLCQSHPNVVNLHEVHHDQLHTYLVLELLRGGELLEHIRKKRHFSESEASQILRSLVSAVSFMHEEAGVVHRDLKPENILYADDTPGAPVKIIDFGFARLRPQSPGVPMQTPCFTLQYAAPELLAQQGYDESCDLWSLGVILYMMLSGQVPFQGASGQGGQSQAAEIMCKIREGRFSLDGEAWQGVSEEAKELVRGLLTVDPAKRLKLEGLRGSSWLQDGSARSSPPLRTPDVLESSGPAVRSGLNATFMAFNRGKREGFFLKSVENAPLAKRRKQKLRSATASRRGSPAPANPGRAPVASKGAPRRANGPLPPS", "conditions": "1000 nM, read-out: Percent Control"}, "[27]": {"molecular_target": "T27, kinome (kinase panel) (Homo sapiens, UniProt P14616)", "T27 construct": "purchased Eurofins DiscoverX", "conditions": "INSRR; 1000 nM; read-out: Percent Control"}, "[28]": {"molecular_target": "T28, kinome (kinase panel) (Homo sapiens, UniProt Q92630)", "T28 construct": "purchased Eurofins DiscoverX", "conditions": "DYRK2; 1000 nM; read-out: Percent Control"}, "[29]": {"molecular_target": "T29, kinome (kinase panel) (Homo sapiens, UniProt P45983)", "T29 construct": "purchased Eurofins DiscoverX", "T29 sequence (P45983 whole entry)": "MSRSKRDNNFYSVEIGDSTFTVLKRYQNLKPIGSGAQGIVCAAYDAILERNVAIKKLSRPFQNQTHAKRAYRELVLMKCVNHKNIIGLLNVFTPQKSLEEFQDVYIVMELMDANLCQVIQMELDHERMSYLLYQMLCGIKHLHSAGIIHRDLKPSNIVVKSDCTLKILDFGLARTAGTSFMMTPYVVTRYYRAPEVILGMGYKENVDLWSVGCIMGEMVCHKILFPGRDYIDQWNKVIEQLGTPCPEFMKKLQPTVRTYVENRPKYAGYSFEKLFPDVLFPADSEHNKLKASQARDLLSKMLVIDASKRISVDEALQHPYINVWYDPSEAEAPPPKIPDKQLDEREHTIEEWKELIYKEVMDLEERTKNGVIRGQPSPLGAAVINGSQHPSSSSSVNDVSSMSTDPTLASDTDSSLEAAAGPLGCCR", "conditions": "JNK1 (Entrez MAPK8); 1000 nM; read-out: Percent Control"}, "[30]": {"molecular_target": "T30, kinome (kinase panel) (Homo sapiens, UniProt Q9UQB9)", "T30 construct": "purchased Eurofins DiscoverX", "conditions": "AURKC; 1000 nM; read-out: Percent Control"}, "[31]": {"molecular_target": "T31, kinome (kinase panel) (Homo sapiens, UniProt Q13557)", "T31 construct": "purchased Eurofins DiscoverX", "conditions": "CAMK2D; 1000 nM; read-out: Percent Control"}, "[32]": {"molecular_target": "T32, kinome (kinase panel) (Homo sapiens, UniProt Q08881)", "T32 construct": "purchased Eurofins DiscoverX", "conditions": "ITK; 1000 nM; read-out: Percent Control"}},
  "note": "Like-named read-outs stand apart in the source and are kept apart here.",
  "data": [
    {"smiles": "CN(C)C(=O)c1cc2cnc(Nc3ccc(-c4csc5c(=O)cc(N6CCOCC6)oc45)cc3)nc2n1C1CCCC1", "note": "[SRX3177]", "values": [
      {"measurement": "remaining binding at 1 µM", "setting": "[1]", "value": 100, "unit": "%"},
      {"measurement": "remaining binding at 1 µM", "setting": "[2]", "value": 100, "unit": "%"},
      {"measurement": "remaining binding at 1 µM", "setting": "[3]", "value": 98, "unit": "%"},
      {"measurement": "remaining binding at 1 µM", "setting": "[4]", "value": 87, "unit": "%"},
      {"measurement": "remaining binding at 1 µM", "setting": "[5]", "value": 91, "unit": "%"},
      {"measurement": "remaining binding at 1 µM", "setting": "[6]", "value": 61, "unit": "%"},
      {"measurement": "remaining binding at 1 µM", "setting": "[7]", "value": 100, "unit": "%"},
      {"measurement": "remaining binding at 1 µM", "setting": "[8]", "value": 100, "unit": "%"},
      {"measurement": "remaining binding at 1 µM", "setting": "[9]", "value": 55, "unit": "%"},
      {"measurement": "remaining binding at 1 µM", "setting": "[10]", "value": 100, "unit": "%"},
      {"measurement": "remaining binding at 1 µM", "setting": "[11]", "value": 5.7, "unit": "%"},
      {"measurement": "remaining binding at 1 µM", "setting": "[12]", "value": 79, "unit": "%"},
      {"measurement": "remaining binding at 1 µM", "setting": "[13]", "value": 57, "unit": "%"},
      {"measurement": "remaining binding at 1 µM", "setting": "[14]", "value": 93, "unit": "%"},
      {"measurement": "remaining binding at 1 µM", "setting": "[15]", "value": 73, "unit": "%"},
      {"measurement": "remaining binding at 1 µM", "setting": "[16]", "value": 91, "unit": "%"},
      {"measurement": "remaining binding at 1 µM", "setting": "[17]", "value": 40, "unit": "%"},
      {"measurement": "remaining binding at 1 µM", "setting": "[18]", "value": 95, "unit": "%"},
      {"measurement": "remaining binding at 1 µM", "setting": "[19]", "value": 100, "unit": "%"},
      {"measurement": "remaining binding at 1 µM", "setting": "[20]", "value": 100, "unit": "%"},
      {"measurement": "remaining binding at 1 µM", "setting": "[21]", "value": 100, "unit": "%"},
      {"measurement": "remaining binding at 1 µM", "setting": "[22]", "value": 100, "unit": "%"},
      {"measurement": "remaining binding at 1 µM", "setting": "[23]", "value": 42, "unit": "%"},
      {"measurement": "remaining binding at 1 µM", "setting": "[24]", "value": 99, "unit": "%"},
      {"measurement": "remaining binding at 1 µM", "setting": "[25]; KIT-autoinhibited", "value": 73, "unit": "%"},
      {"measurement": "remaining binding at 1 µM", "setting": "[25]; KIT", "value": 68, "unit": "%"},
      {"measurement": "remaining binding at 1 µM", "setting": "[26]; RPS6KA4(Kin.Dom.1-N-terminal)", "value": 100, "unit": "%"},
      {"measurement": "remaining binding at 1 µM", "setting": "[26]; RPS6KA4(Kin.Dom.2-C-terminal)", "value": 55, "unit": "%"},
      {"measurement": "remaining binding at 1 µM", "setting": "[27]", "value": 100, "unit": "%"},
      {"measurement": "remaining binding at 1 µM", "setting": "[28]", "value": 69, "unit": "%"},
      {"measurement": "remaining binding at 1 µM", "setting": "[29]", "value": 62, "unit": "%"},
      {"measurement": "remaining binding at 1 µM", "setting": "[30]", "value": 21, "unit": "%"},
      {"measurement": "remaining binding at 1 µM", "setting": "[31]", "value": 65, "unit": "%"},
      {"measurement": "remaining binding at 1 µM", "setting": "[32]", "value": 90, "unit": "%"}
    ]}
  ]
}
